Reference: patent US12391683B2, “Therapeutic compounds and methods” (Actio Biosciences, Inc., priority 2022, dated 2025)

What was measured:
TRPV2 channels = target: T1, TRPV2 channels (Homo sapiens, UniProt Q9Y5S1); assay: TRP Family FLIPR Assay, TRPV2; format: cell-based; conditions: HEK293 cells (transient)
T1 construct: expressed in transfected cells; host or cells: HEK293 (transient)
T1 sequence (Q9Y5S1 1-764): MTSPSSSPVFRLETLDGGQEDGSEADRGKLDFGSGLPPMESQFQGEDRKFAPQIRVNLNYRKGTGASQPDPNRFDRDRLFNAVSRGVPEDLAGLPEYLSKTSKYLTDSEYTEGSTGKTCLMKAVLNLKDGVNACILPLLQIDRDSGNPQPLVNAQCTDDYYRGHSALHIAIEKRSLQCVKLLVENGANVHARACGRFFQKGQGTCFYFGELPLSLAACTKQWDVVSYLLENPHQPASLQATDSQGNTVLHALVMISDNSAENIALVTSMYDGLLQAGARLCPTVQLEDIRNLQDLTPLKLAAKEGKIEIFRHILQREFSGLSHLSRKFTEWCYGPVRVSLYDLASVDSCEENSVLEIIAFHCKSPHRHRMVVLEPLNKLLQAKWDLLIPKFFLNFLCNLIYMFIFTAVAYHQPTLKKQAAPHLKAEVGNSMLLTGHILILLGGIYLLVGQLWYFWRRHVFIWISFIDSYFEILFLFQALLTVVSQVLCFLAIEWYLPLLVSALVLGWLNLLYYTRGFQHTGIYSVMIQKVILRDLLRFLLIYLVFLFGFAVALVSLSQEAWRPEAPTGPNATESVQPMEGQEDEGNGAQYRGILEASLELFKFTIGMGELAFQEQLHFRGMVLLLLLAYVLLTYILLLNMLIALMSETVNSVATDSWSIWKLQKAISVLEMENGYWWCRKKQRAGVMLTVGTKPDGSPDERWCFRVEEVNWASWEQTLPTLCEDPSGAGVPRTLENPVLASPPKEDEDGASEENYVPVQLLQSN
Experimental: (§1) The compound of Example 5 was tested for selectivity against a panel of Human TRP family ion channels in a TRP Family FLIPR Assay as described below. • 1. TRPC3 channels (human TRPC3 variant 1 gene, expressed in HEK293 cells). • 2. TRPC4 channels (human TRPC4 gene, expressed in HEK293 cells). • 3. TRPC5 channels (human TRPC5 gene, expressed in HEK293 cells). • 4. TRPC6 channels (human TRPC6 gene, expressed in HEK293 cells). • 5. TRPM2 channels (human TRPM2 gene, transiently expressed in HEK293 cells). • 6. TRPM3 channels (human TRPM3 gene, transiently expressed in HEK293 cells). • 7. TRPM4 channels (human TRPM4 gene, expressed in CHO cells). • 8. […]
(§2) Data acquisition was performed via the FLIPR Control software supplied with the FLIPR System (MDS-AT) and data was analyzed using Microsoft Excel (Microsoft Corp., Redmond, WA) or GraphPad Prism. […]
(§3) [formula] where Base is the response at low concentrations of test article, Max is the maximum response at high concentrations, xhalf the EC50, or IC50, the concentration of test article producing either half-maximal activation or inhibition, and rate is the Hill coefficient. […] No assumptions about the fit parameters was made; the fit parameters were determined by the algorithm.
(§4) The effect of each test article was evaluated at eight (8) concentrations: 0.003, 0.01, 0.03, 0.1, 0.3, 1, 3 and 10 μM, n≤4 wells/concentration). […]

TRPV6 channels = target: T2, TRPV6 channels (Homo sapiens, UniProt Q9H1D0); assay: TRP Family FLIPR Assay, TRPV6; format: cell-based; conditions: antagonist mode; activated with 0.9 mM calcium ion; HEK293 cells; 0.003-10 μM; read-out: IC50 hTRPV6
T2 construct: expressed in transfected cells; host or cells: HEK293
T2 sequence (Q9H1D0 1-765): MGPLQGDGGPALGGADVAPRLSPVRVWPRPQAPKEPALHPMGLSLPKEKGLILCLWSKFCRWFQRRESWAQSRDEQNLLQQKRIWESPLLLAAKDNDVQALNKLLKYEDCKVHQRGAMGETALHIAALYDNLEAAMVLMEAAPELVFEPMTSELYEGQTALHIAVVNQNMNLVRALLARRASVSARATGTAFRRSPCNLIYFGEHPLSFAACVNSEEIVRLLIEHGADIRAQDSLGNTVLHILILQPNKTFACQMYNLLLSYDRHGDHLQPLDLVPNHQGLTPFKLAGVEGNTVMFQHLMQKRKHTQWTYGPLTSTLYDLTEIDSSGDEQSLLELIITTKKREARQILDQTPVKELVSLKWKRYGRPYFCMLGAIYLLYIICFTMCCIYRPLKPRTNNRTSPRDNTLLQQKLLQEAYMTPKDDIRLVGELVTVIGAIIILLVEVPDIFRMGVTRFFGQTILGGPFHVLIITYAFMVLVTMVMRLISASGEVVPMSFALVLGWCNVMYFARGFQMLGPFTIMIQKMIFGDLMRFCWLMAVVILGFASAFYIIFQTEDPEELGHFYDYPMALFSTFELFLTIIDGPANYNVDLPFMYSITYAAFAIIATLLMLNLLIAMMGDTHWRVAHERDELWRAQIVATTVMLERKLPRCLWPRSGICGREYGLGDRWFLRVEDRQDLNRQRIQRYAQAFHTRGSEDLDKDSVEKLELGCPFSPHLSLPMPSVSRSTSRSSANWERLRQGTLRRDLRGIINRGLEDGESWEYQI
Experimental: as §1, §2, §3, §4

CC(C)(O)c1cnc(N2C[C@@]3(CC[C@@H](F)[C@](C)(Cn4cnc5ccc(C#N)cc54)C3)OC2=O)cn1 (single isomer, unassigned) [Example 5]
> 10 µM: EC50 (TRPV2 channels; agonist mode, vs EMAX of cannabidiol 300 μM, read-out: EC50 hTRPV2) | IC50 (TRPV2 channels; antagonist mode, activated with capsaicin 100 μM, 0.003-10 μM, read-out: IC50 hTRPV2) | IC50 (TRPV6 channels)
